Consider one compound from ChEMBL document CHEMBL4376829, “Discovery and biological evaluation of vinylsulfonamide derivatives as highly potent, covalent TEAD autopalmitoylation inhibitors” (Eur J Med Chem, 2019).

Assay [1] concerns the target T1, Transcriptional enhancer factor TEF-3 (Homo sapiens, UniProt Q15561). Kind of assay: Binding affinity to N-terminal His6 tagged human TEAD4-YBD (217 to 434 residues) expressed in Escherichia coli C43 (DE3) cells assessed as covalent modification at Cys367 residue by HPLC-MS/MS analysis.
In assay [2] the target is T1, Transcriptional enhancer factor TEF-3. Kind of assay: Binding affinity to Flag-tagged TEAD4 (unknown origin) expressed in HEK293T cells assessed as modification in Cys367 residue at 50 uM after 4 hrs by MS analysis. Type of assay: cell-based.
Assay [3] deals with TGF-beta receptor type-1 (Homo sapiens), P36897 [T204D]. The experiment in a line: Inhibition of recombinant human TGFBR1 T204D mutant (200 to end residues) at 10 uM using casein as substrate measured after 40 mins in presence of [gamm33P]ATP by scintillation counting method relative to control.
Assay [4] addresses Insulin receptor-related protein (Homo sapiens) (UniProt P14616). The experiment in a line: Inhibition of recombinant human IRR (943 to 1266 residues) at 10 uM using myelin basic protein as substrate measured after 40 mins in presence of [gamma33P]ATP by scintillation counting method relative to control.
Assay [5] has as its target Receptor-interacting serine/threonine-protein kinase 2 (Homo sapiens) (UniProt O43353). Kind of assay: Inhibition of human RIPK2 (1 to 299 residues) at 10 uM using MBP as substrate measured after 120 mins in presence of [gamma33P]ATP by scintillation counting method relative to control.
Assay [6] has as its system eIF-2-alpha kinase GCN2 (Homo sapiens), Q9P2K8 [E556G]. Kind of assay: Inhibition of full length recombinant human GCN2 E556G mutant at 10 uM using RSRSRSRSRSRSRSR as substrate after 40 mins in presence of [gamma33P]ATP by scintillation counting method relative to control.
Assay [7] concerns the target Serine/threonine-protein kinase pim-1 (Homo sapiens) (UniProt P11309). The experiment in a line: Inhibition of recombinant full-length human PIM1 at 10 uM using KKRNRTLTV as substrate measured after 40 mins in presence of [gamma33P]ATP by scintillation counting method relative to control.
The target of assay [8] is PI3-kinase p110-alpha/p85-alpha (Homo sapiens) (UniProt P27986+P42336). Kind of assay: Inhibition of full-length recombinant human PI3K (p110a/p85a) at 10 uM using phosphatidylinositol 4,5-bisphosphate as substrate after 40 mins by fluorescence based assay relative to control. Type of assay: protein-complex assay.
Assay [9] deals with Phosphorylase b kinase gamma catalytic chain, skeletal muscle/heart isoform (Homo sapiens) (UniProt Q16816). The experiment in a line: Inhibition of full-length recombinant human PHKgamma1 at 10 uM using KKLNRTLSFAEPG as substrate after 120 mins by in presence of [gamma33P]ATP by scintillation counting method relative to control.
The target in assay [10] is Tyrosine-protein kinase Fes/Fps (Homo sapiens) (UniProt P07332). The experiment in a line: Inhibition of recombinant human FES (2 to end residues) at 10 uM using poly(Glu, Tyr) 4:1 as substrate measured after 40 mins in presence of [gamma33P]ATP by scintillation counting method relative to control.
Assay [11] concerns the target Death-associated protein kinase 2 (Homo sapiens) (UniProt Q9UIK4). Kind of assay: Inhibition of full-length recombinant human DAPK2 at 10 uM using calmodulin as substrate after 40 mins by in presence of [gamma33P]ATP by scintillation counting method relative to control.
Assay [12] addresses Death-associated protein kinase 1 (Homo sapiens) (UniProt P53355). The experiment in a line: Inhibition of recombinant human DAPK1 (1 to 296 residues) at 10 uM using KKLNRTLSFAEPG as substrate after 40 mins by in presence of [gamma33P]ATP by scintillation counting method relative to control.
For assay [13], the target named is Platelet-derived growth factor receptor beta (Homo sapiens) (UniProt P09619). Kind of assay: Inhibition of recombinant human PDGFRbeta (557 to end residues) at 10 uM using poly(Glu, Tyr) 4:1 as substrate measured after 40 mins in presence of [gamma33P]ATP by scintillation counting method relative to control.
Assay [14] deals with Platelet-derived growth factor receptor alpha (Homo sapiens) (UniProt P16234). Kind of assay: Inhibition of recombinant human PDGFRalpha (550 to end residues) at 10 uM using poly(Glu, Tyr) 4:1 as substrate measured after 40 mins in presence of [gamma33P]ATP by scintillation counting method relative to control.
Assay [15] concerns the target Serine/threonine-protein kinase 26 (Homo sapiens) (UniProt Q9P289). Kind of assay: Inhibition of recombinant human MST4 (4 to 304 residues) at 10 uM using RLGRDKYKTLRQIRQ as substrate measured after 40 mins in presence of [gamma33P]ATP by scintillation counting method relative to control.
Assay [16] deals with Serine/threonine-protein kinase Chk1 (Homo sapiens) (UniProt O14757). The experiment in a line: Inhibition of recombinant full length human CHK1 at 10 uM using KKKVSRSGLYRSPSMPENLNRPR as substrate measured after 40 mins in presence of [gamma33P]ATP by scintillation counting method relative to control.
Assay [17] addresses Cyclin-dependent kinase 5/CDK5 activator 1 (Homo sapiens) (UniProt Q00535+Q15078). Kind of assay: Inhibition of recombinant full-length human CDK5/p25 at 10 uM using histone H1 as substrate measured after 40 mins in presence of [gamma33P]ATP by scintillation counting method relative to control. Type of assay: protein-complex assay.
The target in assay [18] is CDK2/Cyclin A2 (Homo sapiens) (UniProt P24941+P20248). Kind of assay: Inhibition of recombinant full-length human CDK2/cyclinA at 10 uM using histone H1 as substrate measured after 40 mins in presence of [gamma33P]ATP by scintillation counting method relative to control. The format is protein-complex assay.
The target of assay [19] is CDC7/Cyclin B1 (Homo sapiens) (UniProt P14635+O00311). Kind of assay: Inhibition of full-length recombinant human Cdc7/CyclinB1 at 10 uM using histone H1 as substrate after 120 mins by in presence of [gamma33P]ATP by scintillation counting method relative to control. The format is protein-complex assay.
The target of assay [20] is Mitogen-activated protein kinase kinase kinase kinase 5 (Homo sapiens) (UniProt Q9Y4K4). The experiment in a line: Inhibition of recombinant full-length human MAP4K5 at 10 uM using myelin basic protein as substrate measured after 40 mins in presence of [gamma33P]ATP by scintillation counting method relative to control.
Assay [21] addresses Calcium/calmodulin-dependent protein kinase type 1 (Homo sapiens) (UniProt Q14012). The experiment in a line: Inhibition of recombinant full length human CAMK1 (2 to end residues) at 10 uM using […] as substrate incubated for 40 mins in presence of [gamma-33P]-ATP by scintillation counting method relative to control.
Assay [22] concerns the target Tyrosine-protein kinase ZAP-70 (Homo sapiens) (UniProt P43403). Kind of assay: Inhibition of recombinant full-length human ZAP70 at 10 uM using poly(Glu, Tyr) 4:1 as substrate measured after 40 mins in presence of [gamma33P]ATP by scintillation counting method5 relative to control.
The target in assay [23] is Protein arginine N-methyltransferase 1 (Homo sapiens) (UniProt Q99873). Kind of assay: Inhibition of human PRMT1 at 10 uM after 1 hr by radioisotope-based assay relative to control.
The target of assay [24] is Histone acetyltransferase KAT6A (Homo sapiens) (UniProt Q92794). Kind of assay: Inhibition of human MOZ at 10 uM relative to control.

Molecules are shown by their SMILES. Active and inactive are the calls of the source. The calls are words filed in the database; no cut-off is given here.

T1 sequence (Q15561 whole entry, the tested form may be a part): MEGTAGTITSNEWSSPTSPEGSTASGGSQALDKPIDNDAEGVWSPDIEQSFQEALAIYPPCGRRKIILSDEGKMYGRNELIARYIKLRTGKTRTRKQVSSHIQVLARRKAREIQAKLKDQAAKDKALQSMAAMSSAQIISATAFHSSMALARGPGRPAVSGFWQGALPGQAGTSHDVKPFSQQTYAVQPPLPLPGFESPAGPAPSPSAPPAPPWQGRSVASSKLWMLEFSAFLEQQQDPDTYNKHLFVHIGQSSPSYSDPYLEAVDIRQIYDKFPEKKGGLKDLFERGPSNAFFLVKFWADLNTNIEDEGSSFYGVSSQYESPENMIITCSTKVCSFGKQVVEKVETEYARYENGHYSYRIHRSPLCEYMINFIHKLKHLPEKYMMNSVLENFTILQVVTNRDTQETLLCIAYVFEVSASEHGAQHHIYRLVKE
Sequence of Histone acetyltransferase KAT6A (Homo sapiens) (Q92794 whole entry, looked up): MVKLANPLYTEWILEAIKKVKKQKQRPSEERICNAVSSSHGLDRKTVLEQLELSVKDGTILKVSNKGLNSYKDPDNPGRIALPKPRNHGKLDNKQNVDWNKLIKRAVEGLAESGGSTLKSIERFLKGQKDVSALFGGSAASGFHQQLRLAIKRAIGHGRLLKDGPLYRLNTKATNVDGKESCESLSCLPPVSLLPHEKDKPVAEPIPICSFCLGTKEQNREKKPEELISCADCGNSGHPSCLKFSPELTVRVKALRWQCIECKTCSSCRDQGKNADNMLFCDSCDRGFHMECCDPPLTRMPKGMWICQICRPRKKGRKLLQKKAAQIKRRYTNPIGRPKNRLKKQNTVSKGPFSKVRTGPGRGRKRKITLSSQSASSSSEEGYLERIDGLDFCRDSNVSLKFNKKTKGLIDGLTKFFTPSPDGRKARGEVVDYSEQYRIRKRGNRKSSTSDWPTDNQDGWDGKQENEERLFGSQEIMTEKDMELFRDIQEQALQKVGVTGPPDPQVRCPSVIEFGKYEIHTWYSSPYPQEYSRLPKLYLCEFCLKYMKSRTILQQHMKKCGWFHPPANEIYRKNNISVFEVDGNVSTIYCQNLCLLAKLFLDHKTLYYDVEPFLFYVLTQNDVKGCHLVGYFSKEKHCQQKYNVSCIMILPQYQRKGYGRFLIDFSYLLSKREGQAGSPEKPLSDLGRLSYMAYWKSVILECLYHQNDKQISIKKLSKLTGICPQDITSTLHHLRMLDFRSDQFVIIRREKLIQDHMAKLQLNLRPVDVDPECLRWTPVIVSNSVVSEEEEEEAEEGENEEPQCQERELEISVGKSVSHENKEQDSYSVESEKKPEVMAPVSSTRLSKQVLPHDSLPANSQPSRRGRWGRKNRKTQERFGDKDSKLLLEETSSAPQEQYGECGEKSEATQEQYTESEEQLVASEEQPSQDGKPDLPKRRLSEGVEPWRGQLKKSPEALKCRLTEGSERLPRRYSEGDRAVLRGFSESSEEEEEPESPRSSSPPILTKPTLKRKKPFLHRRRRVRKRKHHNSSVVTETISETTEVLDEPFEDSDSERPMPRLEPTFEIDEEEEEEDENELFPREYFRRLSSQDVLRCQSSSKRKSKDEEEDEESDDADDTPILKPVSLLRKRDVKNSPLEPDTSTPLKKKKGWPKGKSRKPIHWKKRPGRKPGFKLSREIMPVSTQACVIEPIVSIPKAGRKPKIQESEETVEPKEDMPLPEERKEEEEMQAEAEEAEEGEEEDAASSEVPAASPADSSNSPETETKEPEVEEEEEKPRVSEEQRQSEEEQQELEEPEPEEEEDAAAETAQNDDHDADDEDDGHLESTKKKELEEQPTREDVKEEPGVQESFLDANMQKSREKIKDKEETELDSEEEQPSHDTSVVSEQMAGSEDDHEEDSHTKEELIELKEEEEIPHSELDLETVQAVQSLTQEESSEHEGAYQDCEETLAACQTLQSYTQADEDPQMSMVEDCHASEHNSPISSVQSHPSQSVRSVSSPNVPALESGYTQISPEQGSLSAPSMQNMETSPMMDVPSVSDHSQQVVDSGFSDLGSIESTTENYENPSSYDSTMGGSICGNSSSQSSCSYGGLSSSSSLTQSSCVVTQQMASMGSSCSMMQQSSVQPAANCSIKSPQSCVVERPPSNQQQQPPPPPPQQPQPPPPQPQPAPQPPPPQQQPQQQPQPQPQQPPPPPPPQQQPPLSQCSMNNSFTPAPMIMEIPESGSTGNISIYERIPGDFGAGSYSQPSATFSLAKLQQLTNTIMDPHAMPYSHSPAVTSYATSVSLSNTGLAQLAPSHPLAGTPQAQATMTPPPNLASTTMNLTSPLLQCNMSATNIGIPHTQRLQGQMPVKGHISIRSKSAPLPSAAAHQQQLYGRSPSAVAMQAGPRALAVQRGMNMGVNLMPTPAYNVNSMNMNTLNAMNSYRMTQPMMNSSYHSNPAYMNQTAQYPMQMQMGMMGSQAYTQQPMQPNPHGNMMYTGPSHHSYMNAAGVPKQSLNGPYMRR
Sequence of CDC7/Cyclin B1 (Homo sapiens) (O00311 whole entry, looked up): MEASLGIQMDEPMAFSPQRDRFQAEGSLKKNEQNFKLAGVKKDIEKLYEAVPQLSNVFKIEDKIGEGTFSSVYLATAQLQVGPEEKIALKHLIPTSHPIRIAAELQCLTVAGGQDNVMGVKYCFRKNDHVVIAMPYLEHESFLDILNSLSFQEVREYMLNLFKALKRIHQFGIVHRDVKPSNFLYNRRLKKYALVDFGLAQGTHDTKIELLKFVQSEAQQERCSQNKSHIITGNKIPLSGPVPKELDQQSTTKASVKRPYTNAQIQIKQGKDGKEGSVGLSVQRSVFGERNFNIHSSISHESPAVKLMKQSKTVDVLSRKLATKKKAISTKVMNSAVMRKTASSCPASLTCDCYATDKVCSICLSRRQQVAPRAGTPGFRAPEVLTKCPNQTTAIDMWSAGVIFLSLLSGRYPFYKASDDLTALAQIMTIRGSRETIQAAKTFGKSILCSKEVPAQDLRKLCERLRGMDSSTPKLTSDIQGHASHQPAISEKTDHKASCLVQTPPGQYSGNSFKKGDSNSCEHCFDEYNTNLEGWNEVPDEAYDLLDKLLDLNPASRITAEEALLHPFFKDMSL
Sequence of CDC7/Cyclin B1 (Homo sapiens) (P14635 whole entry, looked up): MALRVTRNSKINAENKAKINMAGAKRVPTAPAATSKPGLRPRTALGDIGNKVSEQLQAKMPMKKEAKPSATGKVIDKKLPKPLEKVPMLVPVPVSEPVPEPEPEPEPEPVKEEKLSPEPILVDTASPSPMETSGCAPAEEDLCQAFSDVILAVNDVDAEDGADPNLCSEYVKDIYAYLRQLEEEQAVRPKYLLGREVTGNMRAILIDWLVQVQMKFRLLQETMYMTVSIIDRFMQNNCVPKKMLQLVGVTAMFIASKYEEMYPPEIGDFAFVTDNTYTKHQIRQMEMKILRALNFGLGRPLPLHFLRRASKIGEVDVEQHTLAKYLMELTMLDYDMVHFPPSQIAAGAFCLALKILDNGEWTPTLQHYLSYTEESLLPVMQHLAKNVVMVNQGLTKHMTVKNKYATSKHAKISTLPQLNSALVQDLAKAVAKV
Sequence of Platelet-derived growth factor receptor alpha (Homo sapiens) (P16234 whole entry, the tested form may be a part): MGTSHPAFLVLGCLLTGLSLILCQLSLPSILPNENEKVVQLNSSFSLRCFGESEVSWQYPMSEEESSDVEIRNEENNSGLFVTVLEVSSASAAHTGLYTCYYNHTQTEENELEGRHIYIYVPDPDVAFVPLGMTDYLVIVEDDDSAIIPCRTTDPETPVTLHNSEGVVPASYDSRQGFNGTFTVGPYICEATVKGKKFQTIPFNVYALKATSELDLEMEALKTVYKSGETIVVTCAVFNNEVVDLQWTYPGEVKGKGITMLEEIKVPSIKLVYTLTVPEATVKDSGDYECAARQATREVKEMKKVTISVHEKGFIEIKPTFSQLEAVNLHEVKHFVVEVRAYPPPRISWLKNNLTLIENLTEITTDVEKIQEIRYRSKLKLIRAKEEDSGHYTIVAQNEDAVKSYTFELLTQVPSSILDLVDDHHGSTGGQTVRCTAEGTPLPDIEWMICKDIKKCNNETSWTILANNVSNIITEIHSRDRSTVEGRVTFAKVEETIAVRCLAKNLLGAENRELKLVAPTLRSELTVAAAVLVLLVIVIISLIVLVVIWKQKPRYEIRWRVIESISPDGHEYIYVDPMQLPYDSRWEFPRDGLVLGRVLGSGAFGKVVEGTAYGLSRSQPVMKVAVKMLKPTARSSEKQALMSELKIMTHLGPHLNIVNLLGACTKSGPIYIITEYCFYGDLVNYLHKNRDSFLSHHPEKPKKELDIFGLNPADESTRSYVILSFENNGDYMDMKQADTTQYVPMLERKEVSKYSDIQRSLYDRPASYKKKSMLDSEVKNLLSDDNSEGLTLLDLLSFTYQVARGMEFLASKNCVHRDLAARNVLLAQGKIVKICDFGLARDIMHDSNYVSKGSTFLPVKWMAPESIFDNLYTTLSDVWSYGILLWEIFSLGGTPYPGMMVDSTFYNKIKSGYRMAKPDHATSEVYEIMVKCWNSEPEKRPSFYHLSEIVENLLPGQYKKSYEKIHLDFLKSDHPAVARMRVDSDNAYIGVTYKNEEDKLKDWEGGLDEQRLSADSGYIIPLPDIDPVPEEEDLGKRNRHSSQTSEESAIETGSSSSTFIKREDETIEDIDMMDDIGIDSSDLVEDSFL
Sequence of Serine/threonine-protein kinase Chk1 (Homo sapiens) (O14757 whole entry): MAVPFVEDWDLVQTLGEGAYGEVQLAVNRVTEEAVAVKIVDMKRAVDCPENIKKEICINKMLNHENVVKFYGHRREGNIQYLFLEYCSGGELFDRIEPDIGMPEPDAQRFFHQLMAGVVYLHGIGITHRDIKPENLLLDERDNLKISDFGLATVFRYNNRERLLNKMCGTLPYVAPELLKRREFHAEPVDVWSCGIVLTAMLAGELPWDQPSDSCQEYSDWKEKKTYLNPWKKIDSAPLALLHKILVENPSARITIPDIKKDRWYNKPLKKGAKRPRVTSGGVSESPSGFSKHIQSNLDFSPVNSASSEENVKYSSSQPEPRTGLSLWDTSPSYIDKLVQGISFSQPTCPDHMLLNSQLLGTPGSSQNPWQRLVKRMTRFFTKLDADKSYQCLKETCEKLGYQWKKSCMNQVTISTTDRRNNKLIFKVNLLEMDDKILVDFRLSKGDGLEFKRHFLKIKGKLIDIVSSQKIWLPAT

In general, inhibition refers to the relative decrease from the control value, in per cent. In the case of `C=CS(=O)(=O)Nc1ccc(Cc2ccc3ccccc3c2)cc1`, the result in assay [1] and in assay [2] was Active. Also, the inhibition is -2% in assay [3]; 13% in assay [4]; 6% in [5]; 3% in assay [6]; -3% in assay [7]; 16% in assay [8]. Also, the inhibition in assay [9] was -3%; in [10], 0%; in assay [11], -7%; in [12], 8%; in [13], 3%; in assay [14], 1%. Besides, the inhibition in assay [15] stood at 1%; in [16], 5%; in assay [17] it was 0%; in [18], 10%; in assay [19], 21%; in assay [20], 2%. Besides, the inhibition came to 6% in [21], 5% in [22], 3% in [23] and 7% in [24].
